Assay results: US5624902A, “Peptide inhibitors of calmodulin” (Torrey Pines Institute for Molecular Studies, priority 1995, dated 1997)
Square brackets hold non-standard residues; d marks the D form. Peptide text beside a SMILES is read from it.

Molecular target: calmodulin (Homo sapiens, UniProt P0DP23)
Assay: calcium-dependent phosphodiesterase assay (inhibition of calmodulin activity)
Type: biochemical
Details: for inhibition at 50 µM: inhibition of calmodulin activation of phosphodiesterase at 50 μM peptide, PDE without calmodulin = 100%, Calmo = 0%; for IC50: concentration inhibiting 50% of calmodulin activity, assayed at 75 μM, 50 μM and 12.5 μM
Protocol: In this assay, calmodulin can be assayed by its ability to stimulate phosphodiesterase activity as determined by a two-step assay procedure illustrated by reactions (1) and (2).
During the first step of the assay cyclic adenosine 3'5'-monophosphate (cAMP) is incubated with calcium-activated phosphodiesterase (Cal-PDE), which hydrolyses the 3' bond producing adenosine 5'-monophosphate (5'-AMP). During the second step 5'-AMP is quantitatively converted into adenosine and inorganic phosphate (Pi) through the action of a 5'-nucleotidase. […] The amount of Pi formed is directly related to the phosphodiesterase activity which depends on the level of activation by calmodulin.
To sample assay tubes were added the following components: assay buffer, 25 μl; CaCl2, 5 μl; 5'-nucleotidase, 7.5 μl (stock solution is 10 units/ml); calmodulin 5 units; calmodulin inhibitor peptides to obtain the desired final concentration of 50 μM. The volume was then made up to 200 μl with water. Control blanks were prepared replacing the peptides with water. The added components were thoroughly mixed and the tubes incubated at 30° C. for 10 min. […] The samples were centrifuged to remove the protein precipitate and the 50 μl of the supernatant was withdrawn for phosphate measurement. […] The absorbance of the solution were read at 660 nm using water as a blank, identified as control "Calmo," as discussed in more detail below.
These three peptides commonly used in every assay as control of reproducibility of the assay.
In addition to the calcium-dependent phosphodiesterase assay data, IC50 values were determined for many of the peptides. The assay carried out for the determination in the IC50 values differed from the above screening assay by the concentration of the peptides being tested.
(2) W13: N-(4-aminobutyl)-5-chloro-2-naphtalenesulfonamide; (3) TFP: trifluoperazine; (4) Calmidasolium: (1-[bis-(4-chlorophenyl)methyl]-3[-2-(2,4-dichlorophenyl)-2[(2,4-dichlorophenyl)methoxy]-ethyl]-1H-imidazolium chloride. The IC50 values were calculated using sigmoidal curve software (Graphpad, ISI, San Diego) using the % inhibition at different mixture concentrations (see attached protocol for determination of % inhibition).

| Compound | inhibition at 50 µM | IC50 |
| --- | --- | --- |
| CC(=O)N[C@H](CC(C)C)C(=O)N[C@H](CCC(N)=O)C(=O)N[C@H](CCCNC(=N)N)C(=O)N[C@H](Cc1c[nH]cn1)C(=O)N[C@H](CC(C)C)C(=O)N[C@H](Cc1c[nH]c2ccccc12)C(N)=O [Ac-(D)Leu-(D)Gln-(D)Arg-(D)His-(D)Leu-(D)Trp-NH2] (Ac-[dL][dQ][dR][dH][dL][dW]-NH2) | 44.7% |  |
| CC[C@@H](C)[C@@H](NC(=O)[C@@H](Cc1c[nH]c2ccccc12)NC(=O)[C@@H](CC(C)C)NC(C)=O)C(=O)N[C@H](Cc1c[nH]cn1)C(=O)N[C@H](CC(C)C)C(=O)N[C@H](CCCNC(=N)N)C(N)=O [Ac-(D)Leu-(D)Trp-(D)Ile-(D)His-(D)Leu-(D)-Arg-NH2] (Ac-[dL][dW][dI][dH][dL][dR]-NH2) | 103% | 12 µM |
| CC[C@@H](C)[C@@H](NC(=O)[C@@H](CCC(N)=O)NC(=O)[C@@H](CC(C)C)NC(C)=O)C(=O)N[C@@H](C(=O)N[C@H](CC(C)C)C(=O)N[C@H](Cc1c[nH]c2ccccc12)C(N)=O)[C@H](C)CC [Ac-(D)Leu-(D)Gln-(D)Ile-(D)Ile-(D)Leu-(D)Trp-NH2] (Ac-[dL][dQ][dI][dI][dL][dW]-NH2) | 47.4% | > 50 µM |
| CC[C@@H](C)[C@@H](NC(=O)[C@@H](CCCNC(=N)N)NC(=O)[C@@H](CCC(N)=O)NC(=O)[C@@H](CC(C)C)NC(C)=O)C(=O)N[C@H](Cc1c[nH]cn1)C(=O)N[C@H](Cc1c[nH]c2ccccc12)C(N)=O [Ac-(D)Leu-(D)Gln-(D)Arg-(D)Ile-(D)His-(D)Trp-NH2] (Ac-[dL][dQ][dR][dI][dH][dW]-NH2) | 34.2% | 40 µM |
| CC[C@@H](C)[C@@H](NC(=O)[C@@H](CCC(N)=O)NC(=O)[C@@H](CC(C)C)NC(C)=O)C(=O)N[C@H](Cc1c[nH]cn1)C(=O)N[C@H](Cc1c[nH]cn1)C(=O)N[C@H](CCCNC(=N)N)C(N)=O [Ac-(D)Leu-(D)Gln-(D)Ile-(D)His-(D)His-(D)Arg-NH2] (Ac-[dL][dQ][dI][dH][dH][dR]-NH2) | 43.4% |  |
| CC(=O)N[C@H](CC(C)C)C(=O)N[C@H](Cc1c[nH]c2ccccc12)C(=O)N[C@H](CCCNC(=N)N)C(=O)N[C@H](Cc1c[nH]cn1)C(=O)N[C@H](Cc1c[nH]cn1)C(=O)N[C@H](Cc1c[nH]c2ccccc12)C(N)=O [Ac-(D)Leu-(D)Trp-(D)Arg-(D)His-(D)His-(D)Trp-NH2] (Ac-[dL][dW][dR][dH][dH][dW]-NH2) | 36.8% |  |
| CC(=O)N[C@H](CC(C)C)C(=O)N[C@H](CCC(N)=O)C(=O)N[C@H](CCCNC(=N)N)C(=O)N[C@H](Cc1c[nH]cn1)C(=O)N[C@H](CC(C)C)C(=O)N[C@H](CCCNC(=N)N)C(N)=O [Ac-(D)Leu-(D)Gln-(D)Arg-(D)His-(D)Leu-(D)Arg-NH2] (Ac-[dL][dQ][dR][dH][dL][dR]-NH2) | 64.5% |  |
| NCCCCNS(=O)(=O)c1ccc2c(Cl)cccc2c1 [Peptide W13, N-(4-aminobutyl)-5-chloro-2-naphtalenesulfonamide, reference compound] |  | < 75 µM |
| CC(=O)N[C@H](CC(C)C)C(=O)N[C@H](Cc1c[nH]c2ccccc12)C(=O)N[C@H](CCCNC(=N)N)C(=O)N[C@H](Cc1c[nH]cn1)C(=O)N[C@H](CC(C)C)C(=O)N[C@H](CCCNC(=N)N)C(N)=O [Ac-(D)Leu-(D)Trp-(D)Arg-(D)His-(D)Leu-(D)Arg--NH2] (Ac-[dL][dW][dR][dH][dL][dR]-NH2) | 39.5% | > 50 µM |
| CC[C@@H](C)[C@@H](NC(=O)[C@@H](CCC(N)=O)NC(=O)[C@@H](CC(C)C)NC(C)=O)C(=O)N[C@H](Cc1c[nH]cn1)C(=O)N[C@H](Cc1c[nH]cn1)C(=O)N[C@H](Cc1c[nH]c2ccccc12)C(N)=O [Ac-(D)Leu-(D)Gln-(D)Ile-(D)His-(D)His-(D)Trp-NH2] (Ac-[dL][dQ][dI][dH][dH][dW]-NH2) | 60.5% | 76 µM |
| CSCC[C@@H](NC(=O)[C@@H](CCSC)NC(=O)[C@@H](Cc1ccccc1)NC(=O)[C@@H](Cc1c[nH]cn1)NC(=O)[C@@H](CC(=O)O)NC(C)=O)C(=O)N[C@H](C)C(N)=O [Ctr 2, Ac-(D)Asp-(D)His-(D)Phe-(D)Met-(D)Met-(D)-Ala-NH2, reference compound] (Ac-[dD][dH][dF][dM][dM][dA]-NH2) | 35.5% |  |
| CC[C@@H](C)[C@@H](NC(=O)[C@@H](CCCNC(=N)N)NC(=O)[C@@H](CCC(N)=O)NC(=O)[C@@H](CC(C)C)NC(C)=O)C(=O)N[C@H](Cc1c[nH]cn1)C(=O)N[C@H](CCCNC(=N)N)C(N)=O [Ac-(D)Leu-(D)Gln-(D)Arg-(D)Ile-(D)His-(D)Arg-NH2] (Ac-[dL][dQ][dR][dI][dH][dR]-NH2) | 21.1% | > 50 µM |
| CC[C@@H](C)[C@@H](NC(=O)[C@@H](Cc1c[nH]c2ccccc12)NC(=O)[C@@H](CC(C)C)NC(C)=O)C(=O)N[C@H](Cc1c[nH]cn1)C(=O)N[C@H](Cc1c[nH]cn1)C(=O)N[C@H](Cc1c[nH]c2ccccc12)C(N)=O [Ac-(D)Leu-(D)Trp-(D)Ile-(D)His-(D)His-(D)Trp-NH2] (Ac-[dL][dW][dI][dH][dH][dW]-NH2) | 103% | 24 µM |
| CC(=O)N[C@H](CC(C)C)C(=O)N[C@H](Cc1c[nH]c2ccccc12)C(=O)N[C@H](CCCNC(=N)N)C(=O)N[C@H](Cc1c[nH]cn1)C(=O)N[C@H](Cc1c[nH]cn1)C(=O)N[C@H](CCCNC(=N)N)C(N)=O [Ac-(D)Leu-(D)Trp-(D)Arg-(D)His-(D)His-(D)Arg-NH2] (Ac-[dL][dW][dR][dH][dH][dR]-NH2) | 57.9% |  |
| CC(=O)N[C@H](CC(C)C)C(=O)N[C@H](CCC(N)=O)C(=O)N[C@H](CCCNC(=N)N)C(=O)N[C@H](Cc1c[nH]cn1)C(=O)N[C@H](Cc1c[nH]cn1)C(=O)N[C@H](CCCNC(=N)N)C(N)=O [Ac-(D)Leu-(D)Gln-(D)Arg-(D)His-(D)His-(D)Arg-NH2] (Ac-[dL][dQ][dR][dH][dH][dR]-NH2) | 63.2% |  |
| CC[C@@H](C)[C@@H](NC(=O)[C@@H](CCCNC(=N)N)NC(=O)[C@@H](Cc1c[nH]c2ccccc12)NC(=O)[C@@H](CC(C)C)NC(C)=O)C(=O)N[C@H](CC(C)C)C(=O)N[C@H](CCCNC(=N)N)C(N)=O [Ac-(D)Leu-(D)Trp-(D)Arg-(D)Ile-(D)Leu-(D)Arg-NH2] (Ac-[dL][dW][dR][dI][dL][dR]-NH2) | 107% | 15 µM |
| CC[C@@H](C)[C@@H](NC(=O)[C@@H](Cc1c[nH]c2ccccc12)NC(=O)[C@@H](CC(C)C)NC(C)=O)C(=O)N[C@H](Cc1c[nH]cn1)C(=O)N[C@H](CC(C)C)C(=O)N[C@H](Cc1c[nH]c2ccccc12)C(N)=O [Ac-(D)Leu-(D)Trp-(D)Ile-(D)His-(D)Leu-(D)Trp-NH2] (Ac-[dL][dW][dI][dH][dL][dW]-NH2) | 103% |  |
| CC[C@@H](C)[C@@H](NC(=O)[C@@H](Cc1c[nH]c2ccccc12)NC(=O)[C@@H](CC(C)C)NC(C)=O)C(=O)N[C@@H](C(=O)N[C@H](Cc1c[nH]cn1)C(=O)N[C@H](CCCNC(=N)N)C(N)=O)[C@H](C)CC [Ac-(D)Leu-(D)Trp-(D)Ile-(D)Ile-(D)His-(D)Arg-NH2] (Ac-[dL][dW][dI][dI][dH][dR]-NH2) | 89.5% | 43 µM |
| CC[C@@H](C)[C@@H](NC(=O)[C@@H](CCCNC(=N)N)NC(=O)[C@@H](Cc1c[nH]c2ccccc12)NC(=O)[C@@H](CC(C)C)NC(C)=O)C(=O)N[C@H](Cc1c[nH]cn1)C(=O)N[C@H](CCCNC(=N)N)C(N)=O [Ac-(D)Leu-(D)Trp-(D)Arg-(D)Ile-(D)His-(D)Arg-NH2] (Ac-[dL][dW][dR][dI][dH][dR]-NH2) | 68.4% | 32 µM |
| CC[C@@H](C)[C@@H](NC(=O)[C@@H](CCCNC(=N)N)NC(=O)[C@@H](CCC(N)=O)NC(=O)[C@@H](CC(C)C)NC(C)=O)C(=O)N[C@H](CC(C)C)C(=O)N[C@H](CCCNC(=N)N)C(N)=O [Ac-(D)Leu-(D)Gln-(D)Arg-(D)Ile-(D)Leu-(D)Arg-NH2] (Ac-[dL][dQ][dR][dI][dL][dR]-NH2) | -13.2% | > 50 µM |
| CC[C@@H](C)[C@@H](NC(=O)[C@@H](Cc1c[nH]c2ccccc12)NC(=O)[C@@H](CC(C)C)NC(C)=O)C(=O)N[C@@H](C(=O)N[C@H](CC(C)C)C(=O)N[C@H](CCCNC(=N)N)C(N)=O)[C@H](C)CC [Ac-(D)Leu-(D)Trp-(D)Ile-(D)Ile-(D)Leu-(D)Arg-NH2] (Ac-[dL][dW][dI][dI][dL][dR]-NH2) | 85.5% | 10 µM |
| CC[C@@H](C)[C@@H](NC(=O)[C@@H](CCCNC(=N)N)NC(=O)[C@@H](CCC(N)=O)NC(=O)[C@@H](CC(C)C)NC(C)=O)C(=O)N[C@H](CC(C)C)C(=O)N[C@H](Cc1c[nH]c2ccccc12)C(N)=O [Ac-(D)Leu-(D)Gln-(D)Arg-(D)Ile-(D)Leu-(D)Trp-NH2] (Ac-[dL][dQ][dR][dI][dL][dW]-NH2) | 44.5% | > 50 µM |
| CC[C@@H](C)[C@@H](NC(=O)[C@@H](CCC(N)=O)NC(=O)[C@@H](CC(C)C)NC(C)=O)C(=O)N[C@@H](C(=O)N[C@H](Cc1c[nH]cn1)C(=O)N[C@H](Cc1c[nH]c2ccccc12)C(N)=O)[C@H](C)CC [Ac-(D)Leu-(D)Gln-(D)Ile-(D)Ile-(D)His-(D)Trp-NH2] (Ac-[dL][dQ][dI][dI][dH][dW]-NH2) | 35.5% |  |
| CC[C@@H](C)[C@@H](NC(=O)[C@@H](CCC(N)=O)NC(=O)[C@@H](CC(C)C)NC(C)=O)C(=O)N[C@@H](C(=O)N[C@H](Cc1c[nH]cn1)C(=O)N[C@H](CCCNC(=N)N)C(N)=O)[C@H](C)CC [Ac-(D)Leu-(D)Gln-(D)Ile-(D)Ile-(D)His-(D)Arg-NH2] (Ac-[dL][dQ][dI][dI][dH][dR]-NH2) | 43.4% |  |
| CC(=O)N[C@H](CC(C)C)C(=O)N[C@H](CCC(N)=O)C(=O)N[C@H](CCCNC(=N)N)C(=O)N[C@H](Cc1c[nH]cn1)C(=O)N[C@H](Cc1c[nH]cn1)C(=O)N[C@H](Cc1c[nH]c2ccccc12)C(N)=O [Ac-(D)Leu-(D)Gln-(D)Arg-(D)His-(D)His-(D)Trp-NH2] (Ac-[dL][dQ][dR][dH][dH][dW]-NH2) | 79% |  |
| CC(=O)N[C@H](CC(C)C)C(=O)N[C@H](Cc1c[nH]c2ccccc12)C(=O)N[C@H](CCCNC(=N)N)C(=O)N[C@H](Cc1c[nH]cn1)C(=O)N[C@H](CC(C)C)C(=O)N[C@H](Cc1c[nH]c2ccccc12)C(N)=O [Ac-(D)Leu-(D)Trp-(D)Arg-(D)His-(D)Leu-(D)Trp-NH2] (Ac-[dL][dW][dR][dH][dL][dW]-NH2) | 90.8% | ≤ 10 µM |
